# Experimental data taken from patent US11523610B2, “Regulating plant growth using a diapocarotenoid” (King Abdullah University of Science and Technology, priority 2018, dated 2022).
# Columns and labels:
# [1] = test system: Arabidopsis seedlings (anchor roots); test: Anchor root (ANR) emergence/formation in seedlings without RAM excision; assay type: in vivo; details: for seedlings forming ANRs: no RAM excision, 8 DAG
# Method: Sterilized Col-0 and mutants seeds were kept at 4° C. in darkness for 3 days to stimulate seed germination, and then sown on half strength MSO plates (with 0.5% sucrose +1% agar, 0.5g/L MES, pH 5.7) supplemented with the indicated chemicals as described below or in the Figures. Plates were vertically grown in PERCIVAL® growth chambers under long day (16 h light/8 h dark, 22° C., 60% relative humidity, light density: 4000 LUX) LED white light [HYPERIKON® 16 W LED Light Bulb A21, 16 W (100 W Equivalent), CRI92, 1620 Lumens, 4000K (Daylight Glow)] conditions. Light fluorescence rates were measured using a digital LUX meter (PEAKTECH® 5025).
# (§1) ANRs were counted in seedlings vertically grown on half strength MS (with 0.5% sucrose +1% agar, 0.5 g/L MES, pH 5.7) media 8 days post-stratification (dps) using a dissection microscope. To investigate ANR formation after root apical meristems (RAM) excision (ANR-RE), RAM of seedlings were excised using sterile scalpels at 5 dps and then grown for another 3 days prior to counting the number of emerged ANRs. RAM of seedlings were excised at 8 dps and then grown for another 3 days prior to counting the number of emerged LRs. For determining the effect of anchorene on lateral roots, the number of emerged lateral roots were counted using a dissection microscope at 8 dps. For primary root length measurements, seedlings were measured using the publicly available ImageJ software (downloaded from rsbweb.nih.gov/ij/) after taking digital photographs. For adventitious root assay, the number of emerged adventitious roots per plant were counted after 5 days of treatment on plates with or without anchorene.
# Prior to the anchor root (ANR) measurements, seeds from 10 ecotypes (Po-0, Is-0, Wu-0, Col-0, Cvi-0, Hi-0, Ove-0, Sav-0, Ler and Kin-0) were harvested from plants grown in long-day photoperiod conditions (16h light/8 h darkness, 22° C., 60% humidity). Seeds of all 10 ecotypes were surfaced sterilized and incubated in sterile water at 4° C. for 8 days, for uniform germination. Natural ANR emergence and ANRC was measured as described above (Anchor root assays) for each ecotype. 20 μM anchorene was used to test the responses of the Po-0 and Is-0 ecotypes to anchorene.
# Excision of the root apical meristems (RAM) triggers ANR formation (FIGS. 3C-D). […] About 9% of control Col-0 seedlings developed ANRs under normal conditions, while approximately 50% formed ANRs upon RAM excision (FIGS. 4B-C). […] Higher anchorene concentrations (10 and 20 μM) enhanced this ratio to 97% and 100%, respectively (FIGS. 4B-C). There was also an increase in the number of seedlings that developed two ANRs from 0% in the untreated control to approximately 80% upon application of 20 μM anchorene (FIGS. 4B-C). Using a wide range of concentrations, a dose-response curve was established in the presence and absence of RAM excision. […] Thus, the promotion of ANRs is not caused by inhibiting primary root growth.
# pDR5rev::GFP seedlings = test: Confocal microscopy of pDR5rev::GFP auxin marker line; assay type: in vivo, Arabidopsis
# Excerpt: To examine pDR5Rev::GFP fluorescence at the collet region, live seedlings were directly used for laser scanning confocal microscopy (Zeiss LSM 510 microscope) examination.
# For fluorescence intensity quantification of pDR5Rev::GFP and pPIN3::PIN3-GFP marker lines, ImageJ software (rsbweb.nih.gov/ij/) was used after taking confocal microscopy photos. All calculations are background subtracted.
# [2] = test system: dark grown Arabidopsis seedlings; test: Adventitious root assay; assay type: in vivo; details: 5, 10, or 20 μM anchorene, 5 days
# Excerpt: as §1
# 4-day-old dark grown Arabidopsis seedlings were transferred to plates with 5, 10, or 20 μM anchorene, or without. After 5 additional days of growth, the number of adventitious roots was determined for each seedling.
structure (smiles),measurement,setting,value
"C\C(C=O)=C/C=C/C=C(\C)C=O [anchorene, 12,12′-diapocarotene-12,12′-dial]",seedlings forming ANRs,"[1]; 5 μM, control about 9%",55%
same,seedlings forming ANRs,[1]; 10 μM,97%
same,seedlings forming ANRs,[1]; 20 μM,100%
same,seedlings that developed two ANRs,"[1]; 20 μM, untreated control 0%",approximately 80%
same,ANR emergence in different Arabidopsis ecotypes,"[1]; Col-0, Is-0 and Po-0, 20 μM anchorene",promotes ANR emergence
same,ANR formation,[1]; screen at 5 or 25 μM,promotion of ANR formation
same,dose-response of ANR formation,"[1]; wide range of concentrations, in presence and absence of RAM excision (FIG. 3J)",dose dependent
same,"GFP signal in ANR primordia, combined NF/anchorene treatment",pDR5rev::GFP seedlings; 1 μM NF plus 20 μM anchorene,clearly enhanced
same,GFP signal at the collet / ANR primordia,"pDR5rev::GFP seedlings; single compound, 20 μM anchorene, 1 μM NF",strong GFP signal
same,number of adventitious roots,[2],significantly increases
